Assay results from paper PMC5465999, “Design of new acid-activated cell-penetrating peptides for tumor drug delivery” (PeerJ, 2017).
Where a SMILES comes first, the peptide text is derived from it. [ ]: non-standard residue; d: D form. Aib = CC(C)(N)C(=O)O

Experiments:
HeLa cells [1] = conditions: 2 h incubation, MTT; for cytotoxicity: pH 6.0, 20 µM; for viability of cells: pH 7.4 and pH 6.5, different concentrations
Procedure: Cytotoxicity of all peptides against HeLa cells was evaluated using the MTT assay under varying pH conditions (pH 7.4, 6.5 and 6.0). Cells were seeded at 1 × 10^4 cells/well in 96-well plates, 24 h before treatment. After washing, cells were treated with serum-free medium, adjusted to pH 7.4, 6.5 or 6.0, and containing various concentrations of peptides. After 2 h incubation, 10 µL of MTT (5 mg/mL) was added to each well and incubated for another 4 h at 37°C. Then, the medium was removed and cells were dissolved by 150 µL dimethyl sulfoxide. Absorbance was determined using a microplate reader at 490 nm. Cell viability (%) was calculated using the following equation: Atest∕Acontrol × 100%, where Atest and Acontrol represent the absorbance of cells treated with different test solutions and blank culture media, respectively.

mice red blood cells = conditions: mouse erythrocytes in PBS, 1 h at 37°C; maximum concentration of 200 µM; n = 3
Procedure: Fresh mouse blood was collected in heparin sodium-containing centrifuge tubes. Erythrocytes were separated by centrifugation at 800×g for 10 min and washed three times with phosphate buffered saline (PBS). Obtained erythrocytes were resuspended in PBS to 8 % (v/v). 100 µL of the peptide solution of various concentrations and 100 µL of the erythrocyte suspension were added to the wells of a 96-well plate. PBS and 0.2 % TritonX-100 were used as agents for 0 % and 100 % hemolysis, respectively. Plates were incubated for 1 h at 37°C and centrifuged at 1,200×g for 15 min. A total of 100 µL of each supernatant was transferred to a 96-well plate, and the release of hemoglobin was determined using a microplate reader at 490 nm.

HeLa cells [2] = conditions: 2 h incubation, n = 3; for LDH levels with decreasing pH: pH 7.4, 6.5, 6.0
Procedure: Membrane integrity was evaluated using the CytoTox-ONE assay. Cells were seeded at 1 ×10^4cells/well in a 96-well plate 24 h before treatment. After 2 h incubation with 100 µL serum-free medium, adjusted to pH 7.4, 6.5 or 6.0 and containing various concentrations of peptides, 40 µL of medium was transferred to a black fluorescence plate and incubated for 10 min with 40 µL of CytoTox-ONE reagent, followed by 20 µL of stop solution. Fluorescence was recorded with an excitation wavelength of 560 nm and emission wavelength of 590 nm. Untreated cells were defined as those where no leakage was observed while 100% leakage was defined as a total release of LDH due to cell lysis in 0.2% Triton X-100.

[3] = in vitro and in vivo conditions; ref Zhang et al., 2011; cited from earlier work
Excerpt: In recent years, pH-responsive CPPs have been developed for targeted delivery based on the pH gradient between the tumor tissues and physiological environment ([Lee, Gao & Bae, 2008]; [Shi et al., 2015]; [Jiang et al., 2012]; [Fei et al., 2014]). […] The acidic tumor microenvironment mandates the development of pH-responsive CPPs for improved s ...

[4] = set-up: method as in Zaro, Fei & Shen, 2012; Ouahab et al., 2014; conditions: ref Zaro, Fei & Shen, 2012; Ouahab et al., 2014; cited from earlier work
Excerpt: However, due to the imidazole on histidine with a pKa around 6.5, histidine could protonate into a net positive charge at pH values below 6.5 ([Zaro, Fei & Shen, 2012]; [Ouahab et al., 2014]), thereby activating the membrane penetrating activity of TH and allowing its entry into the cells. However, histidine becomes relatively insensitive to the tumor extracellular environment when the pH is in the 6.5–7.2 range, thereby reducing the pH-dependent penetrating activity of TH. In order to extend the applications of acid-activated CPPs, it is necessary to improve their pH-response. The ability of ...

HeLa cells [5] = experiment: Quantitative cellular uptake assay (flow cytometry) of FITC-labeled peptides; type: cell-based; conditions: 1 h; for fluorescence intensity / cellular uptake relative to TH: all pH values (7.4, 6.5, 6.0); for fluorescence intensity / cellular uptake relative to TH / pH-responsive effect (change of fluorescence from pH 7.4 to pH 6.0) relative to TH: 5 µM FITC-labeled peptide
Procedure: The cells were harvested and centrifuged at 1,000 rpm for 5 min. Subsequently, the cell pellet was suspended and washed twice with PBS and resuspended in PBS. Finally, fluorescence intensity of 10,000 cells was analyzed with an FACS caliber flow cytometer using 488-nm laser excitation.

[6] = RP-HPLC retention time on C18 column (hydrophobicity); type: physicochemical; conditions: for RP-HPLC retention times: analytical RP-HPLC, C18, sunfire column 3.9 mm × 150 mm, Waters, used as measure of hydrophobicity
Procedure: All peptides shown in Table 1 were synthesized on a MBHA (0.43mmol/g) resin using the standard Fmoc-chemistry-based strategy. Fluorescein moiety (FITC) was attached to the N-terminusvia an aminohexanoic acid spacer by treating the resin-bound peptide (0.1 mmol) with FITC (0.1 mmol) and diisopropyl ethyl amine (0.5 mmol) in DMF for 12 h. All crude peptides were purified and analyzed by reversed-phase high performance liquid chromatography (RP-HPLC) on a C18 column, and then characterized by electrospray ionization mass spectrometry (ESI-MS).
Generally, cationic CPPs can bind on the anionic membrane surfaces via electrostatic interaction and promote cellular uptake ([Poon & Gariepy, 2007]). Thus, cationic functionalityis a critical factor for cell penetration. Histidine is especially pH-responsive ([Zaro, Fei & Shen, 2012]; [Ouahab et al., 2014]). Due to the presence of an imidazole ring, it has the ability to receive protons and protonate into a positive charge in an acidic tumor environment, whereas it remains predominantly uncharged under normal physiological conditions. The pH-responsiveness of histidine has been widely utilizedin the design of pH-responsive CPPs for targeted drug delivery. The protonation ability of histidine’simidazole moiety is the key for pH-dependent cellular uptake of histidine-rich peptides. […] In this regard, this study focused on the development of new histidine analogs that enhance the protonation of histidine by introducing alkylated groups with different electron-donating ability.

HeLa cells [7] = experiment: Confocal laser scanning microscopy of FITC-labeled peptides; type: cell-based; conditions: CLSM, 5 µM FITC-labeled peptide, 1 h, 37°C; for pH-responsiveness of cellular uptake: pH 7.4, 6.5, 6.0
Procedure: To obtain a direct insight into the distribution of FITC-labeled peptides in cells, HeLa cells (6 × 10^4 cells/well) were plated in a glass-bottom culture dish for 24 h and then incubated with the FITC-labeled peptides using conditions and concentrations described above. After 1 h incubation at 37°C, the cells were washed with cold PBS three times and imaged using confocal laser scanning microscopy.

Compound | cytotoxicity (HeLa cells [1]) | viability of cells (HeLa cells [1]) | LDH levels with decreasing pH (HeLa cells [2]) | fluorescence intensity / cellular uptake relative to TH (HeLa cells [5]) | RP-HPLC retention times [6] [min] | pH-responsiveness of cellular uptake (HeLa cells [7]) | cytotoxic variation from pH 7.4 to pH 6.0 (HeLa cells [1]) | LDH levels at pH 6.5 and pH 6.0 relative to pH 7.4 (HeLa cells [2]) | pH-responsive effect (change of fluorescence from pH 7.4 to pH 6.0) relative to TH (HeLa cells [5]) | further results
CC[C@H](C)[C@H](NC(=O)[C@H](Cc1c[nH]cn1)NC(=O)[C@H](Cc1c[nH]cn1)NC(=O)C(C)(C)NC(=O)[C@H](CC(C)C)NC(=O)[C@H](Cc1c[nH]cn1)NC(=O)[C@H](C)NC(=O)[C@H](CC(C)C)NC(=O)[C@H](Cc1c[nH]cn1)NC(=O)[C@H](Cc1c[nH]cn1)NC(=O)[C@H](CC(C)C)NC(=O)[C@H](CC(N)=O)NC(=O)[C@@H](NC(=O)[C@H](Cc1c[nH]cn1)NC(=O)CNC(=O)[C@H](CC(C)C)NC(=O)[C@H](CC(C)C)NC(=O)[C@H](Cc1ccc(O)cc1)NC(=O)CNC(=O)[C@H](C)N)[C@@H](C)CC)C(=O)N[C@@H](CC(C)C)C(N)=O [TH] (H-AGYLLGHINLHHLAHL[Aib]HHIL-NH2) | increased | higher than 80% | rose as the pH value decreased |  |  |  |  |  |  | hemolytic activity (cytotoxicity against red blood cells) (mice red blood cells): little cytotoxicity against red blood cells; toxicity compared to TK [3]: decreased
N[C@@H](Cc1c[nH]cn1)C(=O)O [histidine] |  |  |  |  |  |  |  |  |  | pKa of the imidazole on histidine [4]: around 6.5
AGYLLGHBINLHBHBLAHBL(Aib)HBHBIL-NH2 [Butyl-TH] |  |  |  | increased remarkably | 20.561 | more pH-responsive at pH 6.5 | didn’t show obvious cytotoxic variation | comparable to that at pH 7.4 |  | fluorescence intensity, fold higher than TH (HeLa cells [5]; pH 6.5, 5 µM FITC-labeled peptide, serum-free medium): approximately 1.72 fold
AGYLLGHEINLHEHELAHEL(Aib)HEHEIL-NH2 [Ethyl-TH] | increased | higher than 80% | rose as the pH value decreased |  | 18.623 | better pH-dependent cellular uptake than TH at pH 6.0 |  |  | better than TH | fluorescence intensity relative to TH (HeLa cells [5]; pH 7.4 and 6.5, 5 µM FITC-labeled peptide): lower fluorescence intensity than TH; LDH release in comparison with TH and the other analogs (HeLa cells [2]; pH 6.0): most obvious LDH release
AGYLLGHIINLHIHILAHIL(Aib)HIHIIL-NH2 [Isopropyl-TH] |  |  |  |  | 19.041 | no pH-responsive at pH 6.5 | didn’t show obvious cytotoxic variation | comparable to that at pH 7.4 | lower than that of TH | fluorescence intensity at pH 6.5 relative to pH 7.4 (HeLa cells [7]): slightly lower than that at pH 7.4
AGYLLGHMINLHMHMLAHML(Aib)HMHMIL-NH2 [Methyl-TH] |  |  |  | reduction of cellular uptake | 18.058 | poor pH-responsiveness |  | comparable to that at pH 7.4 |  | hydrophobicity relative to TH ([6]; from retention time on the C18 reverse-phase HPLC column): less hydrophobic than TH; cellular uptake relative to TH (HeLa cells [7]; pH 6.5 and pH 6.0): lower cellular uptake than TH; cytotoxicity at low pH (HeLa cells [1]; pH 6.5 and pH 6.0): didn’t show any significant cytotoxicity
